# In US20250199015A1, “CYCLIN-DEPENDENT KINASE 2 INHIBITORS FOR MEDICAL TREATMENT” (INCYCLIX BIO, LLC, priority 2022, published 2025):
# “Also recorded” adds a separate entry of the source. Read-outs that look alike come from different tables or passages of the source.
# Columns and labels:
# OVCAR-3 cells = assay: CellTiter Glo cell proliferation assay; assay type: cell-based, human; details: six days
# Method: (§1) Plates were returned to the incubator for six additional days. On day six post dosing, plates were removed and treated with CellTiter Glo reagent following manufacturer's specifications. Plates were incubated 45 minutes at room temperature and run on Biotek luminometer with 1 sec/well detection. Results were converted to Microsoft Excel and transferred to Graphpad Prism for analysis. […] These cell types are distinguished by either gained of cyclin E1 expression or activation (Kuramochi) or intrinsic amplification of cyclin E1 (OVCAR-3, COV318).
# In a similar manner, OVCAR-3 cells were grown in RPMI-1640, 1× Glutamax, 10% FBS and 1×ITS at 37° C., 5% CO2. Cells were plated at 500 cells per well in white wall/clear bottom plates and incubated overnight. […] Plates returned to incubator for six additional days. On day six post dosing, plates were removed and treated with CellTiter Glo reagent following manufacturer's specifications. Plates were incubated 45 minutes at room temperature and run on Biotek luminometer with 1 sec/well detection. Results were converted to Microsoft Excel and transferred to GraphPad Prism for analysis.
# FUOV-1 cells = assay: CellTiter-Glo cell proliferation assay; assay type: cell-based; details: Homo sapiens, 144 h; 6 days; read-out: IC50 in FUOV1 cells
# Method: (§2) The Kuramochi human ovarian carcinoma cell line was grown in RPMI-1640/1× Glutamax/10% fetal bovine serum and the FUOV-1 human ovarian carcinoma cell line was grown in DMEM/F12/1× Glutamax/10% fetal bovine serum and both were plated at 1,000 cells/well in Corning 96 well white wall/clear bottom tissue culture treated plates. […] Plates were removed from incubator at each specified timepoint and treated with CellTiter-Glo (Promega, Inc) following manufacturer specifications. Plates were then read on CLARIOstar luminometer with 1 sec/well integration. Results were converted to Microsoft Excel and transferred to GraphPad Prism for Analysis (FIG. 16A-B).
# [1] = system: T47D parental and therapy-resistant cells; assay: Cell cycle by BrdU flow cytometry in therapy-resistant cells; assay type: cell-based, human; details: Compound I with abemaciclib (LYR) or abemaciclib and fulvestrant (LYFR), 7 days
# Method: The therapy resistant cells were previously incubated with abemaciclib, fulvestrant, and/or palbociclib for prolonged periods to the point of developing drug resistance. Cells were plated in Corning 6 well tissue culture treated plates. Cells were treated for 7 days. Media was spiked with 10 μM BrdU prior to collection. Cells were washed in PBS, trypsinized, collected and centrifuged at 300 RCF for 5 mins. Cells were resuspended in cell culture media and transferred into a 96 well V-bottom plate with roughly 300,000 cells per well. Cells were then stained using the Near-IR Fixable Viability Stain (Invitrogen Cat. L34976) for 20 mins at room temperature, protected from light. Cells were fixed and permeabilized using eBioscience FoxP3/Transcription Factor Staining Buffer Set (Cat. 00-5523-00). DNA was denatured using 2N HCl+0.5% (v/v) Triton X-100 for 30 mins room temperature, agitating every 5-10 mins. The acid was neutralized using 0.1M Na2B4O7·10H2O (pH 8.5) followed by 0.5% BSA in PBS. Cells were then stained with BrdU antibody (Clone 3D4, BioLegend Cat. 364118) for 1 hour at room temperature. Prior to acquisition on the BD A3 Symphony, DNA was stained for 30 minutes using FxCycle Violet ReadyFlow Reagent.
# Cell staining was then conducted to monitor cellular proliferation and perform cell cycle analysis of these therapy-resistant cells. […] Similarly, abemaciclib- and fulvestrant-resistant (LYFR) cells administered abemaciclib and fulvestrant were not substantially arrested in the G1 phase (FIG. 147H).
# [2] = Nonclinical pharmacokinetics (IV and PO); details: in vivo
# Method: Nonclinical PK studies were conducted for single dose of Compound I in rats, mice, and dogs, and for repeated doses of Compound I in rats and dogs. […] The relationship between dose level and systemic exposure was generally similar in male and female animals.
# [3] = system: pRb, cyclin E in FUOV-1 cells; assay: Western blot pRb and cell cycle proteins; assay type: cell-based, human; details: 30-1000 nM, 24 hours
# Method: An independent human ovarian carcinoma cell line, FUOV-1, was grown in DMEM/F12/1× Glutamax/10% fetal bovine serum and plated at 300,000 cells/well in Corning 6 well tissue culture treated plates. Cells were incubated at […] for 24 hours prior to addition of 2 replicates of 0.1% DMSO control and 1 replicate for each treatment. […] Cells were collected by washing each well twice with cold PBS, then scraping cells in the presence of 150 μL cold RIPA with protease and phosphatase inhibitors. Lysates were clarified by centrifugation at 14,000×g for 10 min at 4° C. and supernatants transferred to clean tubes. A BCA assay was performed to determine the protein concentration of each lysate. A total of 30 μg of protein was mixed with sample buffer and reducing agent before being run on a 4-12% SDS-PAGE. Protein was transferred to a nitrocellulose membrane and blocked with LI-COR blocking buffer for 1 hour. Membranes were incubated overnight in primary antibody at 4° C. Following 3 washes with TBS-T, membranes were incubated for 45 minutes in LI-COR secondary antibodies. Following 2 washes in TBS-T, and one TBS wash, membranes were scanned using a LI-COR OdysseyCLx. Image studio was used for image analysis.
# [4] = system: Hs68 normal foreskin fibroblast cells; assay: Cell cycle by EdU flow cytometry, normal fibroblasts; assay type: cell-based, human; details: 300 nM, 24 hours, alone or in combination with cisplatin
# Method: The Hs68 normal foreskin fibroblast cell line was grown in DMEM-high glucose/1× Glutamax/10% fetal bovine serum and was plated at 30,000 cells/well in Corning 6 well tissue culture treated plates. Cells were incubated at 37° C. for 24 hours prior to addition of the first treatment. […] Cells were treated to 24 hours post-initial treatment, with 10 μM EdU added at hour 23. Cells were collected and fixed in 1% paraformaldehyde. Cells were incubated with pacific blue azide dye as described by Thermo Scientific. Cells were then incubated with antibody against γ-H2AX at a ratio of 1:50 before incubation with FarRed dye and RNase. Cells were analyzed on a BD Celesta and data compiled using FloJo and GraphPad. Cell cycle profiles were evaluated following treatment via Flow Cytometry using FlowJo (v10.0) software.
# Kuramochi cells = assay: CellTiter Glo cell proliferation assay; assay type: cell-based, human; details: CCNE1 gained, six days
# Method: as §1, §2
structure (smiles),measurement,setting,value
NS(=O)(=O)c1ccc(Nc2ncc3cc4n(c3n2)C2(CCCCC2)C(=O)NN4)cc1 [Compound I],cell viability compared with palbociclib,OVCAR-3 cells; CCNE1 amplified,potently decreases cell viability
same,IC50,"OVCAR-3 cells; Homo sapiens, OVCAR-3, 144 h",49 nM
same,IC50,FUOV-1 cells,16 nM
same,cell cycle arrest of therapy-resistant cells,[1],arrested in G1; also recorded: arrested therapy-resistant LYR cells
same,half-life,"[2]; dog, dogs",≤ 360 min
same,Tmax,"[2]; dog, iv, dogs, read-out: Tmax after IV dosing",≤ 15 min
same,Tmax,"[2]; dog, po, dogs, read-out: Tmax after PO dosing",72 to 102 min
same,Tmax,"[2]; mouse, iv, mice, read-out: Tmax after IV dosing",≤ 15 min
same,Tmax,"[2]; mouse, po, mice, read-out: Tmax after PO dosing",15 to 240 min
same,Tmax,"[2]; rat, iv, rats, read-out: Tmax after IV dosing",≤ 15 min
same,Tmax,"[2]; rat, po, rats, read-out: Tmax after PO dosing",15 to 30 min
same,cyclin E amplification,[3],no cyclin E amplification was observed
same,pRb levels,[3],decreases pRb levels in a dose-dependent manner
same,cell cycle changes,[4],Few cell cycle changes were observed
same,cell viability compared with palbociclib,Kuramochi cells,potently decreases cell viability; also recorded: at concentrations substantially lower than palbociclib
